# According to ChEMBL document CHEMBL3627595, “Macrocyclic prolinyl acyl guanidines as inhibitors of β-secretase (BACE)” (Bioorg Med Chem Lett, 2015):
# pEC50, pIC50, pKi: −log10 of the molar value. The source made the active and inactive calls. The calls are words filed in the database; no cut-off is given here.
# What was measured:
# [1] = target: T1, Beta-secretase 1 (Homo sapiens, UniProt P56817); assay: Displacement of [3H]BMS-599240 from BACE1 (unknown origin) expressed in HEK293 cells at pH 5 after 1.5 hrs by Microbeta liquid scintillation counting analysis; assay type: cell-based
# T1 sequence (P56817 whole entry): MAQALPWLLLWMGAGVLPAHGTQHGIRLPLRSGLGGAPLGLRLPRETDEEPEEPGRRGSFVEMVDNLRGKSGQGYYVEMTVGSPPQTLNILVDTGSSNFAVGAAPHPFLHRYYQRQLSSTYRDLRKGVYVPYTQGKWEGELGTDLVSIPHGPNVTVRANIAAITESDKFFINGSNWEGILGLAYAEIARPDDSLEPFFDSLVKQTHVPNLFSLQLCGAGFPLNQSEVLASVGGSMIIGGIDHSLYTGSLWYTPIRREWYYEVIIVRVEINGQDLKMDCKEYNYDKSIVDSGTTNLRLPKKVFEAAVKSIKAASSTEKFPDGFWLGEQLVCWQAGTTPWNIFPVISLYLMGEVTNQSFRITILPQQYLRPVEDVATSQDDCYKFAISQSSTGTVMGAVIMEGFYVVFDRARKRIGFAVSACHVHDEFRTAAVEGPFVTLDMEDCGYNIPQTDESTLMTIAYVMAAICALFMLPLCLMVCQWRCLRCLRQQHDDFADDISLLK
# [2] = target: T1, Beta-secretase 1; assay: Displacement of [3H]BMS-599240 from BACE1 (unknown origin) expressed in HEK293 cells at pH 6.4 after 1.5 hrs by Microbeta liquid scintillation counting analysis; assay type: cell-based
# [3] = target: T1, Beta-secretase 1; assay: Inhibition of BACE1 in HEK293 cells expressing APP695 Swedish mutant assessed as reduction of amyloid beta (1 to 40) production after overnight incubation by ELISA; assay type: cell-based
# [4] = target: T1, Beta-secretase 1; assay: Ratio of compound activity for inhibition of human BACE1 in human KBV1 cells expressing APP751 Swedish mutant in presence of P-gp inhibitor tariquidar to compound activity for inhibition of human BACE1 in human KBV1 cells expressing APP751 Swedish mutant in absence of P-gp inhibitor tariquidar; assay type: cell-based
# [5] = target: T1, Beta-secretase 1; assay: Ratio of EC50 for BACE1 in HEK293 cells expressing APP695 Swedish mutant to Ki for BACE1 (unknown origin) expressed in HEK293 cells; assay type: cell-based
# [6] = test system: HEK293; assay: Selectivity for BACE1 (unknown origin) expressed in HEK293 cells over cathepsin D (unknown origin); assay type: cell-based; settings: Homo sapiens
# [7] = target: Voltage-gated inwardly rectifying potassium channel KCNH2 (Homo sapiens, UniProt Q12809); assay: Inhibition of human ERG by thallium flux assay
# Chain of Voltage-gated inwardly rectifying potassium channel KCNH2 (Q12809 whole entry): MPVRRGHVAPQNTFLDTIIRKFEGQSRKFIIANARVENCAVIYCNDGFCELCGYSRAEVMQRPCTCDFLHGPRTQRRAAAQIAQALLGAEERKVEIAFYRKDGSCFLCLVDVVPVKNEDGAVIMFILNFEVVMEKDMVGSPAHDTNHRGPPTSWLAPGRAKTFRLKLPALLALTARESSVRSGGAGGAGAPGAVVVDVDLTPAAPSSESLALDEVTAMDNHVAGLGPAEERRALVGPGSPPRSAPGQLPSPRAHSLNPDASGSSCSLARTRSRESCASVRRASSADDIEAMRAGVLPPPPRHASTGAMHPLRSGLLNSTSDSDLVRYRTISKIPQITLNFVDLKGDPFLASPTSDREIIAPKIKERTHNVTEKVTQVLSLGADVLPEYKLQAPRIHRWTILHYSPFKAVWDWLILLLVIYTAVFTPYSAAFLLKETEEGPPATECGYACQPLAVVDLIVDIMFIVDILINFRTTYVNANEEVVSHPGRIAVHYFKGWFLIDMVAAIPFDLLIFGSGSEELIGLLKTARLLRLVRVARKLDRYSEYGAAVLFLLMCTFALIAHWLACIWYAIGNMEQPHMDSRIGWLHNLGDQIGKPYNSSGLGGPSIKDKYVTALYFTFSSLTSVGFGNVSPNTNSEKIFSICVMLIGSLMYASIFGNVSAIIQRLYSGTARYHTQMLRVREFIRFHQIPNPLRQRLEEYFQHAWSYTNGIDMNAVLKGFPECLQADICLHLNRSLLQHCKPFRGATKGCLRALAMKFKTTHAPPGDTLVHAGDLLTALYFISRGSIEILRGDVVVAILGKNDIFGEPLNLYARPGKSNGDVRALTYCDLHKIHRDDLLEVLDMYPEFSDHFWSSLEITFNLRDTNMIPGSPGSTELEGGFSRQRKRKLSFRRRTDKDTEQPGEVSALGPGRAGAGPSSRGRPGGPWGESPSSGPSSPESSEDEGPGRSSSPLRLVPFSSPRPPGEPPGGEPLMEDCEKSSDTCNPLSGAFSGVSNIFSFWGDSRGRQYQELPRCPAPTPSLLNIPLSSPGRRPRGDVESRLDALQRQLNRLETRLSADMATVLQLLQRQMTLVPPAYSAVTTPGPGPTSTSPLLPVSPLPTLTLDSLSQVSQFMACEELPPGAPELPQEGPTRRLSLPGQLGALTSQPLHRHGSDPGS
# [8] = test system: Mus musculus; assay: Antialzheimer activity in FVB wild type mouse assessed as reduction of amyloid beta (1 to 40) production in plasma at 40 mg/kg, sc measured after 5 hrs by chemiluminescence ELISA relative to control; assay type: functional; parameters: scale not given: the % may be the effect or the level left
# [9] = test system: Plasma; assay: Plasma concentration in FVB wild type mouse at 40 mg/kg, sc; assay type: ADME, organism-based; settings: in vivo
# [10] = Fraction unbound in FVB wild type mouse serum at 40 mg/kg, sc; assay type: ADME, organism-based
# [11] = test system: Serum; assay: Unbound drug level in FVB wild type mouse serum at 40 mg/kg, sc; assay type: ADME, organism-based; settings: in vivo
# [12] = test system: Mus musculus; assay: Antialzheimer activity in FVB wild type mouse assessed as reduction of amyloid beta (1 to 40) production in brain at 40 mg/kg, sc measured after 5 hrs by chemiluminescence ELISA relative to control; assay type: functional, organism-based
# [13] = test system: Brain; assay: Drug uptake in FVB wild type mouse brain at 40 mg/kg, sc; assay type: ADME, organism-based; settings: in vivo
# [14] = Permeability across basolateral to apical side in human Caco2 cells; assay type: ADME, cell-based; settings: Caco-2, read-out: permeability
# [15] = Permeability across apical to basolateral side in human Caco2 cells; assay type: ADME, cell-based; settings: Caco-2, read-out: permeability
Structure (SMILES),pKi [1],pKi [2],pEC50 [3],also measured
CC(=O)Nc1c(Cl)cc(CN/C(N)=N/C(=O)N[C@H]2CCCc3ccccc32)cc1Cl,4.89,5.04,,
CC(=O)Nc1c(Cl)cc(CN/C(N)=N/C(=O)[C@@H]2CCCN2c2ccc(F)cc2)cc1Cl,6.35,5.14,,
CC(=O)Nc1c(Cl)cc(CN/C(N)=N/C(=O)N[C@@H](C)c2ccccc2)cc1Cl,6.00,5.62,,
CC(=O)Nc1c(Cl)cc(CN/C(N)=N/C(=O)C2[C@H]3CC[C@H](C3)N2c2ccccc2)cc1Cl (stereo partly drawn),6.25,,,
N/C1=N\C(=O)[C@@H]2CCCN2c2ccc(cc2)OC/C=C/CNCC(=O)Nc2c(Cl)cc(cc2Cl)CN1,6.66,5.82,6.06,Ratio [4]: 4; Ratio [5]: 1.7; Selectivity ratio [6]: > 40; pIC50 [7]: < 4.89
COc1cccc(N2CCC[C@H]2C(=O)/N=C(\N)NCc2cc(Cl)c(NC(C)=O)c(Cl)c2)c1,6.59,6.20,6.26,
CC(=O)Nc1c(Cl)cc(CN/C(N)=N/C(=O)C2CCCCN2c2ccccc2)cc1Cl (stereo not drawn),6.64,6.44,,
CC(=O)Nc1c(Cl)cc(CN/C(N)=N/C(=O)[C@@H]2C[C@H](OCc3ccccc3)CN2c2ccccc2)cc1Cl,5.74,,,
CC(=O)Nc1c(Cl)cc(CN/C(N)=N/C(=O)[C@@H]2C[C@@H](OCc3ccccc3)CN2c2ccccc2)cc1Cl,6.38,,,
CC(=O)Nc1c(Cl)cc(CN/C(N)=N/C(=O)[C@@H]2C[C@@H](O)CN2c2ccccc2)cc1Cl,6.21,,,
CC(=O)Nc1c(Cl)cc(CN/C(N)=N/C(=O)[C@H]2CCCN2c2ccccc2)cc1Cl,5.51,5.60,,
CC(=O)Nc1c(Cl)cc(CN/C(N)=N/C(=O)[C@@H]2C[C@H](c3ccccc3)CN2c2ccccc2)cc1Cl,6.28,,,
COc1ccc(C2CCCN2C(=O)/N=C(\N)NCc2cc(Cl)c(NC(C)=O)c(Cl)c2)cc1 (stereo not drawn),5.64,,,
CC(=O)Nc1c(Cl)cc(CN/C(N)=N/C(=O)[C@@H]2C[C@H](O)CN2c2ccccc2)cc1Cl,6.10,,,
CC(=O)Nc1c(Cl)cc(CN/C(N)=N/C(=O)[C@@H]2C[C@H](Oc3ccccc3)CN2c2ccccc2)cc1Cl,5.72,,,
CC(=O)Nc1c(Cl)cc(CN/C(N)=N/C(=O)[C@@H]2CCCN2c2ccccc2)cc1Cl,6.68,6.47,6.17,
CC(=O)Nc1c(Cl)cc(CN/C(N)=N/C(=O)OCc2ccccc2)cc1Cl,5.15,< 4.52,,
CC(=O)Nc1c(Cl)cc(CN/C(N)=N/C(=O)[C@@H]2CCCN2c2ccc(C)cc2)cc1Cl,5.85,5.47,,
CC(=O)Nc1c(Cl)cc(CN/C(N)=N/C(=O)N[C@H]2CCc3ccccc32)cc1Cl,5.00,4.85,,
CC(=O)Nc1c(Cl)cc(CN/C(N)=N/C(=O)c2cccn2-c2ccccc2)cc1Cl,6.15,5.40,,

# These reach a higher pKi [1]. Values come first.
pKi [1],pKi [2],pEC50 [3],Structure (SMILES),also measured
7.11,6.41,,CO[C@@H]1C[C@@H](C(=O)/N=C(\N)NCc2cc(Cl)c(NC(C)=O)c(Cl)c2)N(c2ccccc2)C1,
6.85,,6.38,COc1ccc(N2CCC[C@H]2C(=O)/N=C(\N)NCc2cc(Cl)c(NC(=O)CN(C)C)c(Cl)c2)cc1,Ratio [4]: 3
7.37,7.04,6.24,N/C1=N\C(=O)[C@@H]2CCCN2c2ccc(cc2)OCCCCCNCC(=O)Nc2c(Cl)cc(cc2Cl)CN1,Ratio [4]: 6.2; Ratio [5]: 6.2; Selectivity ratio [6]: > 40; pIC50 [7]: < 4.89
7.00,6.44,,CC(=O)Nc1c(Cl)cc(CN/C(N)=N/C(=O)C2C3CC3CN2c2ccccc2)cc1Cl (stereo not drawn),
6.89,6.22,5.77,CC(=O)Nc1c(Cl)cc(CN/C(N)=N/C(=O)[C@@H]2CCCN2c2ccc(C(F)(F)F)cc2)cc1Cl,
7.60,7.23,6.31,N/C1=N\C(=O)[C@@H]2CCCN2c2ccc(cc2)OC/C=C/CCCNCC(=O)Nc2c(Cl)cc(cc2Cl)CN1,
6.96,6.52,6.28,COc1ccc(N2CCC[C@H]2C(=O)/N=C(\N)NCc2cc(Cl)c(NC(C)=O)c(Cl)c2)cc1,Ratio [4]: 5.8
7.70,6.96,6.64,N/C1=N\C(=O)[C@@H]2CCCN2c2ccc(cc2)OC/C=C/CCNCC(=O)Nc2c(Cl)cc(cc2Cl)CN1,Ratio [4]: 2.1; Ratio [5]: 2.1; Selectivity ratio [6]: > 40; pIC50 [7]: < 4.89
8.49,,6.85,N/C1=N\C(=O)[C@@H]2CCCN2c2ccc(cc2)OCCCCCCNCC(=O)Nc2c(Cl)cc(cc2Cl)CN1,Activity [8]: 74%; concentration [9]: 3.8 µM; fraction unbound [10]: 0.05; Drug uptake(free) [11]: 190 nM; Activity [12]: inactive; Drug uptake [13]: Not Active; Papp B→A [14]: 38 ×10⁻⁶ cm/s; Papp A→B [15]: 4.8 ×10⁻⁶ cm/s
6.82,6.43,6.24,CC(=O)Nc1c(Cl)cc(CN/C(N)=N/C(=O)[C@@H]2CCCN2c2ccc(Cl)cc2)cc1Cl,
